Among the test systems are 786-0 renal; EKVX NSCLC; HCT-116 colon; HOP-62 NSCLC; LOX IMVI melanoma; NCI-H23 lung; OVCAR-4 ovarian; SF-268 CNS; SN12C renal; UO-31 renal.
Assay in all cases: NCI-60 cell line screen, 48 h

Each structure is given as a SMILES string.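 How tested: cells in 96-well plates exposed to compound for 48 hours at five concentrations. GI50: concentration for 50% inhibition of growth. The concentration for full growth arrest is given as TGI.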

In PubChem BioAssay (NCI) one finds TGI and GI50 data, which are given here for six molecules.

As to `C[C@@H]1CC[C@H]2C(C)(C)[C@H]3C[C@@]12CC[C@@]3(C)O`, the TGI in the test with 786-0 renal, in the test on EKVX NSCLC, in the test with HCT-116 colon, in the test with HOP-62 NSCLC, with LOX IMVI melanoma and with NCI-H23 lung was above 100 µM in each case. Also, the TGI with OVCAR-4 ovarian was above 100 µM; in the test with SF-268 CNS it was above 100 µM; with SN12C renal, 60.5 µM; in the test with UO-31 renal, above 100 µM.
Consider `CCCCCCCCCCSC(=N)N` (tested in a mixture with another compound), for which the GI50 was 1.91 µM in the test on 786-0 renal; 6.89 µM in the test on EKVX NSCLC; 2600 nM in the test with HCT-116 colon; 11.8 µM in the test on HOP-62 NSCLC; 2.72 µM in the test on LOX IMVI melanoma; 11.1 µM in the test on NCI-H23 lung. Moreover, the GI50 in the test on OVCAR-4 ovarian was 3.44 µM; in the test on SF-268 CNS it was 4.01 µM; in the test with SN12C renal, 6.28 µM; in the test on UO-31 renal it was 3.02 µM. Also, the TGI in the test with 786-0 renal came out at 4.54 µM; in the test on EKVX NSCLC, 23.7 µM; in the test on HCT-116 colon it was 9.55 µM; in the test with HOP-62 NSCLC, 27.3 µM; with LOX IMVI melanoma, 11.1 µM; in the test on NCI-H23 lung it was 25.9 µM. In addition, the TGI is 16 µM in the test with OVCAR-4 ovarian, 17.6 µM with SF-268 CNS, 21.6 µM in the test with SN12C renal and 13 µM in the test with UO-31 renal.
Regarding `OC(c1cc(C(F)(F)F)nc2c(C(F)(F)F)cccc12)C1CCCCN1` (stereo unspecified), the GI50 in the test with 786-0 renal is 1.88 µM; in the test on EKVX NSCLC, 2.3 µM; with HCT-116 colon it was 1790 nM; in the test with HOP-62 NSCLC, 1.84 µM; in the test with LOX IMVI melanoma, 1.65 µM; with NCI-H23 lung, 2.85 µM. The GI50 was 2.81 µM with OVCAR-4 ovarian, 3.57 µM in the test on SF-268 CNS, 1.78 µM in the test on SN12C renal and 2.63 µM with UO-31 renal. Also, the TGI with 786-0 renal came out at 3.77 µM; with EKVX NSCLC, 8.63 µM; with HCT-116 colon it was 3.22 µM; in the test on HOP-62 NSCLC, 5.13 µM; in the test with LOX IMVI melanoma, 3.15 µM; with NCI-H23 lung it was 11.3 µM. Also, the TGI in the test on OVCAR-4 ovarian is 7.07 µM; with SF-268 CNS, 13.1 µM; in the test on SN12C renal, 3.71 µM; with UO-31 renal, 12.3 µM.
Consider `CN(C)CC1CCCC/C1=N/O` (stereo unspecified), for which the TGI in the test on 786-0 renal, in the test with EKVX NSCLC, in the test on HCT-116 colon, with HOP-62 NSCLC, with LOX IMVI melanoma and with NCI-H23 lung was above 100 µM in each case. Further, the TGI in the test on OVCAR-4 ovarian, in the test on SF-268 CNS, in the test with SN12C renal and in the test on UO-31 renal was above 100 µM in each case.
Consider `Br[Se]c1ccccn1`, for which the TGI stood at 32.6 µM in the test with 786-0 renal; 31.5 µM with EKVX NSCLC; 33 µM in the test on HCT-116 colon; 12.2 µM with HOP-62 NSCLC; 33 µM in the test with LOX IMVI melanoma; 39.3 µM in the test with NCI-H23 lung. The TGI with OVCAR-4 ovarian turned out to be 30.9 µM; in the test with SF-268 CNS, 32.2 µM; in the test with SN12C renal, 33.1 µM; in the test with UO-31 renal it was 31.2 µM.
In the case of `CCC(C)SC1SCC2C(=O)N(C)C3(CC3C)C(=O)OCC(NC(=O)c3nc4ccccc4cc3O)C(=O)NC(C)C(=O)N(C)C1C(=O)N(C)C1(CC1C)C(=O)OCC(NC(=O)c1nc3ccccc3cc1O)C(=O)NC(C)C(=O)N2C` (stereo unspecified), the TGI in the test on 786-0 renal came out at 1.3 µM; in the test with EKVX NSCLC it was 0.00538 µM; in the test with HOP-62 NSCLC it was 0.00155 µM; with LOX IMVI melanoma, 0.000122 µM; in the test with NCI-H23 lung it was 0.000154 µM; with OVCAR-4 ovarian, 0.0182 µM. In addition, the TGI was found to be 0.00516 µM in the test with SF-268 CNS, 9.55 µM in the test on SN12C renal and 0.0127 µM with UO-31 renal. The GI50 is 0.0288 nM in the test on HCT-116 colon and 0.000187 µM in the test on OVCAR-4 ovarian.
